Data on 2 molecules can be found in US20230219886A1, “NOVEL SELENO-NSAID ANALOGS AND USES THEREOF” (THE PENN STATE RESEARCH FOUNDATION, priority 2020, published 2023).

Molecules are shown by their SMILES. “Also recorded” adds a separate entry of the source. Where two headings read alike, the source gives them in different places.

What is called GI50 is the concentration that inhibits growth by half. A word on the LC50: it is the concentration that kills 50% of the test population. As usually defined, the TGI is the concentration at which net growth stops. Read a low TGI as more potent growth arrest. In general, cell viability refers to a per cent measure of how many cells are alive, often set against a control. A high value points to better survival. A word on the IC50: it is the concentration that inhibits the measured activity by half. The viability is a read-out of living cells in per cent, often relative to untreated cells.

One data set has as its system LC: HOP-62. The data set is described as follows: NCI-60 dose-response, HOP-62. Type of data set: cell-based, human. Particulars: HOP-62, 48 h. An excerpt: (§1) NCI-60 Analysis. 1a and 6a were submitted to National Cancer Institute's (NCI) Developmental Therapeutics Program (DTP) where the cytotoxicity profile was investigated across their 60 human cancer cell line panel according to the protocol available on multiple sources (71-73, 83). The COMPARE algorithm (73), was utilized to evaluate the activity profile of 6a in comparison to those of known cytotoxins established in marketed drugs and standard agent data sets in order to correlate plausible modes of action.
(§2) NCI-60 analysis. Compounds 1a, 5a and 6a were submitted to the National Cancer Institute's (NCI) Developmental Therapeutics Program (DTP). NCI-60 program consists in a panel of 60 human cancer cell lines from a variety of cancers, including refractory tumors such as lung, ovarian, CRC, breast, brain and renal cancers, and melanomas together with more treatable cancers such as leukemias (71). 1a [NSC: 803071], 5a [NSC: 820332] and 6a [NSC: 811013] were initially screened at one dose (10 μM) at 48 h. Then, NCI selected only compound 6a to perform dose-response characterization (72).

A further data set deals with HT-29 cells. The data set is described as follows: Annexin V & Dead cell apoptosis assay. Type of data set: cell-based, human. Particulars: HT29, 5 μM, 12 h. Here is the method:
Apoptosis assay. Induction of apoptosis after the treatment with compounds 1a and 6a were analyzed using Annexin V & Dead cell assay kit and Caspase 3/7 Assay kit (EMD Millipore, Billercia, Mass.) using Muse cell analyzer following manufacturer's protocol. Briefly, the HT-29 cells were plated in triplicates in a six-well plate at densities of 1×10^5 cells/well. Following day, the cells were treated with the compounds 1a and 6a and incubated for 48 h. At the end of the treatment duration, the cells were prepared following manufacturer's guidelines and the data were acquired using Muse 1.4 software.
Compounds 1a and 6a induced apoptosis in CRC cells. We further investigated whether the inhibition of cell cycle leads to apoptosis. In pursuit of this, HT29 cells were treated with 5 μM of the compounds 1a and 6a for indicated time intervals. Apoptosis was measured by using Annexin V & Dead cell assay kit and Caspase 3/7 Assay kit using Muse cell analyzer following manufacturer's protocol. The live cell population resided in the lower left quadrant and they start shifting towards the lower right quadrant (early apoptotic) or to upper right quadrant (late apoptotic/dead) after treatments. […] A similar trend was also observed after 6a treatment where the live cell population were decreased from <75% to <65% after 12 h and 24 h treatment, respectively.

The test system of a further data set is BxPC3 cells. Description: Subcutaneous xenograft tumor inhibition study in athymic nude mice. Type of data set: in vivo. Here is the method:
(§3) The cytotoxic response of 6a on pancreatic ductal adenocarcinoma cell lines (Panc-1, MIA PaCa-2 and BxPC3) was evaluated using MTT assay. […] To determine whether the in vitro efficacy of 6a translates to in vivo models, we performed a pilot tumor inhibition study in xenograft mouse model using BxPC3 cells. Athymic nude mice were subcutaneously injected with BxPC3 cells. After two weeks, mice were injected intraperitoneally with vehicle DMSO (control) or 6a (three times a week at a dose of 4 mg/Kg in 100 μL of DMSO). Tumor size and animal weights were measured twice a week.

Data set [1] concerns human CRC cells (HT-29, HCT-116, RKO and CACO-2). Description: MTT assay, panel of four CRC cells. Type of data set: cell-based. Particulars: 4 CRC cells. The protocol:
Cell Culture Conditions. […] Culture medium was replaced every three days.
Evaluation of the antiproliferative activity of methylseleno-NSAIDs, MSA and NSAIDs alone or in combination. […] CRC cells were treated for 24, 48 and 72 h at different concentrations to stablish the dose-response curves.
For orientation: Tetrazolium dyes change colour on reduction, which living cells bring about.

In data set [2] the test system is DU-145 (prostate carcinoma). The data set is described as follows: MTT cell viability assay, DU-145. Particulars: for cell viability: 48 h. Here is the method: (§4) Cell Culture Conditions. The cell lines were obtained from the American Type Culture Collection (ATCC). PANC-1 and Caco-2 cell lines were maintained in DMEM medium (Gibco); HT-29, HCT-116 and RKO cells were maintained in McCoy's 5A medium (Gibco); and DU-145 and H1299 cells were maintained in RPMI 1640 medium (Gibco), supplemented with 10% fetal bovine serum (FBS; Gibco) and 1% antibiotics (10.00 units/mL penicillin and 10.00 mg/mL streptomycin; Gibco). Cells were preserved in tissue culture flasks at 37° C. and 5% CO2. Culture medium was replaced every three days.
(§5) Cell Viability Assay. The effect of each compound on cell viability was tested using the MTT assay (81). Briefly, 9000 cells/well were grown in 96-well plates for 12 h. Then these cells were incubated with either DMSO (control) or nine different concentration between 0.01-50 μM of the test compounds for 24, 48, and 72 h. Three hours before the termination point, 20 μL of MTT were added to measure cellular viability. The resultant formazan crystals were dissolved in 50 μL of DMSO, and absorbance was measured at 570 nm and 630 nm wavelengths. IC50, GI50, TGI and LC50 values were calculated using OriginPro 8.5.1.
Evaluation of the antiproliferative activities of the novel molecules. […] These four cell lines were treated with each compound at three concentrations (5, 25 and 50 μM) for 48 h.

The next data set has as its system RE: A498. Description: NCI-60 dose-response, A498. Type of data set: cell-based, human. Particulars: A498, 48 h.
From the text: as §1, §2

Data set [3] in a line: Systemic toxicity in xenograft mice. Type of data set: in vivo. The protocol: as §3
Another data set deals with OV: OVCAR-5. Description: NCI-60 dose-response, OVCAR-5. Particulars: OVCAR-5, most resistant cell line. Type of data set: cell-based, human.
From the text: as §1, §2

A further data set has as its system HCT-116 CRC cells. The data set is described as follows: MTT cell viability assay, HCT-116. Type of data set: cell-based, human. Particulars: read-out: IC50. The protocol: as §4, §5
The test system of data set [4] is NCI-60 human cancer cell line panel. Description: NCI-60 dose-response, whole panel. Type of data set: cell-based.
From the text: as §1, §2

A further data set has as its system HT-29 (CRC cells). The data set is described as follows: NCI-60 one-dose screen, HT-29. Type of data set: cell-based, human. Particulars: HT-29, 10 μM, 48 h.
From the text: as §1, §2

The mark [5] stands for this setting: read-out: LC50 (the source's name).
Setting [6] is: 4 mg/Kg i.p. three times a week.
[7] abbreviates: Homo sapiens, DU-145, 48 h, read-out: cell viability.

With `C[Se]C(=O)CC1=C(C)/C(=C/c2ccc([S+](C)[O-])cc2)c2ccc(F)cc21` (stereo not shown) [Compound 6a, Se-methyl (Z)-2-(5-fluoro-2-methyl-1-(4-(methylsulfinyl)benzylidene)-1H-indenyl)ethaneselenoate], the GI50 was under 10 nM in the data set on LC: HOP-62; 38.8 nM in the data set with RE: A498; 47 nM in the data set on OV: OVCAR-5; under 10 nM in data set [4] (in four NSCLS and two CNS cell lines). In the data set on LC: HOP-62, this molecule showed an LC50 of 941 nM. The TGI was found to be 155 nM with LC: HOP-62, 184 nM in the data set with RE: A498 and 410 nM in the data set with OV: OVCAR-5. Moreover, the live cells in the data set on HT-29 cells was under 75%. The “reduction of tumor weight as compared to control mice” value in the data set on BxPC3 cells (4 mg/Kg i.p. three times a week, 22 days since start of treatment) amounted to 42.9%. Besides, the tumor growth entry in the data set with BxPC3 cells (4 mg/Kg i.p., three times a week, nude mice xenograft) is “significantly inhibited; also recorded: significantly reduced”. In addition, the “anti-tumoral activity versus MSA and NSAIDs as single agents or combined” value in data set [1] is reported as “higher anti-tumoral activity”. Also, the cell viability in data set [2] (DU145, 5 μM) was 60.1 ± 2.2%; in [2] (DU145, 25 μM), 44.9 ± 2.4%; in data set [2] (DU145, 50 μM), 52.5 ± 2.9%. In addition, the CC50 amounted to 658 nM in the data set with RE: A498 (setting [5]) and 3900 nM in the data set on OV: OVCAR-5 (setting [5]). In [3] (setting [6]), the “alanine aminotransferase (SGPT)” value was 19 U/L. Moreover, the bilirubin toxicity in [3] (setting [6]) stood at 0.40 mg/dL. In data set [3] (setting [6]), this molecule showed a blood urea nitrogen of 23 mg/dL. Further, in data set [3] (setting [6]), the “body weight loss as compared to the control mice” value is on record as “did not show any significant weight loss”. Also, in data set [3] (at the dose used (4 mg/Kg)), the systemic toxicity entry is on record as “no evidence of systemic toxicity”. For the same molecule, the IC50 amounted to 7300 ± 2300 nM with HCT-116 CRC cells (HCT-116, 24 h); 3200 ± 700 nM in the data set with HCT-116 CRC cells (HCT-116, 48 h); 1800 ± 600 nM with HCT-116 CRC cells (HCT-116, 72 h). In data set [4] (LE:SR, CCRF-CEM, HCT-116, HL60, NCI-H522, MOLT-4), the “cytotoxic activity towards the 6 most sensitive cells of the panel” value is listed as “negligible”. Further, the “activity towards the 6 most resistant cells” value in data set [4] (TK10, SK-MEL-28, SNB-19, SK-OV-3, NCI-H322M, OVCAR-5) is “outstanding activity”. Further, the TGI values result in data set [4] (in all cell lines, except for seven) is “below 12 μM”.
In the data set on HT-29 cells, `C[Se]C(=O)c1ccccc1OC(C)=O` [Compound 1a, 2-((methylselanyl)carbonyl)phenyl acetate] registered a live cells of under 76%. Also, the “Growth percent (GP)” value with HT-29 (CRC cells) was under 12%. In data set [1], the “anti-tumoral activity versus MSA and NSAIDs as single agents or combined” value is reported as “higher anti-tumoral activity”. For the same molecule, in data set [2] (setting [7]), the viability at 5 µM worked out at 43.2 ± 1.8%. The viability at 25 µM in data set [2] (setting [7]) was 35.9 ± 7%. Moreover, the viability at 50 µM in [2] (setting [7]) was determined as 36.5 ± 6.7%. In addition, the IC50 in the data set with HCT-116 CRC cells (Homo sapiens, HCT-116, 24 h) was over 50000 nM; in the data set on HCT-116 CRC cells (Homo sapiens, HCT-116, 48 h), 2200 ± 300 nM; in the data set on HCT-116 CRC cells (Homo sapiens, HCT-116, 72 h), 1000 ± 200 nM.
